Data taken from ChEMBL document CHEMBL3739425, “Exploring cinnamic acid scaffold: development of promising neuroprotective lipophilic antioxidants” (Medchemcomm, 2015).
pIC50: −log10 of the molar value. Activity calls are given as the source filed them. The calls are words filed in the database; no cut-off is given here.

Assays:
[1] = Antioxidant activity assessed as DPPH radical scavenging activity measured every minute over 45 mins by spectrophotometry; format: physicochemical
[2] = Antioxidant activity assessed as ABTS radical scavenging activity by spectrophotometry; format: physicochemical
SH-SY5Y [3] = experiment: Cytotoxicity against human SH-SY5Y cells at 1 and 10 uM after 24 hrs by MTT assay; format: cell-based
SH-SY5Y [4] = experiment: Neuroprotective activity in human SH-SY5Y cells assessed as inhibition of 6-OH-DA-induced cytotoxicity at 1 uM compound incubated for 1 hr followed by 24 hrs incubation with 100 uM 6-OH-DA by MTT assay; format: functional, cell-based
SH-SY5Y [5] = experiment: Neuroprotective activity in human SH-SY5Y cells assessed as inhibition of 6-OH-DA-induced cytotoxicity at 10 uM compound incubated for 1 hr followed by 24 hrs incubation with 100 uM 6-OH-DA by MTT assay; format: functional, cell-based
[6] = Antioxidant activity assessed as galvinoxyl radical scavenging activity measured over 30 mins by spectrophotometry; format: physicochemical
[7] = Iron chelation activity of compound assessed as [Fe(ferrozine)3]2+ complex formation by spectrophotometry; format: physicochemical

SMILES | pIC50 [1] | pIC50 [2] | Activity (SH-SY5Y [3]) | inhibition (SH-SY5Y [4]) | inhibition (SH-SY5Y [5]) | pIC50 [6] | Activity [7]
COc1ccc(/C=C/C=C/C(=O)O)cc1OC | < 4.12 | < 4.30 | Non-toxic | inactive | inactive |  | 
COc1cc(/C=C/C=C/C(=O)O)ccc1O | 4.37 | 4.71 | Non-toxic |  | Active | 5.32 | 
Cc1c(C)c2c(c(C)c1O)CCC(C)(C(=O)O)O2 (racemic) [TROLOX] | 4.51 | 5.55 |  |  |  | 5.47 | 
O=C(O)/C=C/c1ccc(O)c(O)c1 [CAFFEIC ACID] | 4.66 | 4.76 |  |  |  | 4.57 | Active
O=C(O)/C=C/C=C/c1ccc(O)c(O)c1 [DEMETHYLENATED PIPERIC ACID] | 4.74 | 4.95 | Non-toxic | Active | Active | 5.60 | Active
COc1cc(/C=C/C(=O)O)ccc1O [FERULATE] | 4.31 | 4.62 |  |  |  | 4.58 | 
